Assay results reported in patent US9464064B2, “HCV helicase inhibitors and methods of use thereof” (University of Kansas, priority 2011, dated 2016).
Like-named read-outs stand apart in the source and are kept apart here.

Legend:
[1] = target: MBHA DNA substrate; experiment: Fluorescent intercalation displacement (FID) assay, ethidium bromide; format: binding; details: for EC50: FID, mean ± SD, read-out: DNA Binding (Ethidium Bromide) EC50
Protocol: Fluorescent intercalation displacement (FID) assays (Boger, et al. (2001) J. Am. Chem. Soc. 123:5878-5891) were used to measure the ability of a compound to bind the MBHA substrate. The concentration at which half the ethidium bromide is displaced (EC50) was determined using the different conditions as above to more closely mimic the conditions of a standard helicase assay. Each 100 μL reaction contained 25 mM MOPS pH 6.5, 0.16 μM MBHA DNA substrate (lacking Cy5 and IBQ-RQ modifications), 2 μM ethidium bromide, and various concentrations of test compound. Fluorescence of ethidium bromide was monitored using excitation and emission wavelengths of 545 and 595 nm, respectively, on a Cary Eclipse fluorescence spectrophotometer in white 96-well plates. The amount of ethidium bromide-DNA complex fluorescence was used to estimate the ability of compounds to bind DNA, and therefore displace the fluorescent intercalator (ethidium bromide).
In Equation 4, Fc is the fluorescence in the presence of the compound, F(−) is the average DMSO-only negative controls, and F(+) is the average positive controls (100 μM berenil). EC50 values were from a normalized dose-response curve.
These twelve hits were then subjected to a counterscreen designed to independently identify DNA binding compounds using a modified fluorescent intercalator displacement (FID) assay (Boger, et al. (2001) supra). The FID assay used ethidium bromide to judge a compound's ability to bind DNA and was based on the assumption that a DNA binding compound would displace a fluorescent DNA intercalating agent, leading to an observable decrease in observed fluorescence. Compounds were tested at 1.5 μM in the presence of the 25 base pair substrate used in the helicase assays.

[2] = target: T1, HCV NS3 helicase NS3h_1b(con1) (Hepatitis C virus genotype 1b, UniProt Q9WMX2); experiment: biochemical; format: biochemical, hepatitis C virus genotype 1b(con1)
T1 construct: truncated C-terminally His-tagged NS3 proteins lacking the N-terminal protease, called NS3h; His-tag (C); made in house
Text: (§1) All oligonucleotides were purchased from Integrated DNA Technologies (IDT, Coralville, Iowa). The partially duplex DNA substrates used in MBHAs consisted of a helicase substrate forming 25 base pairs and consists of a 45-mer bottom strand 5′-GCTCCCCGTTCATCGATTGGGGAGC(T)20-3′ (SEQ ID NO:1) and the 25-mer HCV top strand 5′-Cy5-GCTCCCCAATCGATGAACGGGGAGC-IBRQ-3′ (SEQ ID NO:2). The 19 base pair RNA substrate used in MBHAs was composed of a 39 nucleotide long bottom strand 5′-AGU GCC UUG ACG AUA CAG C(U)20-3′ (SEQ ID NO:3) and the 24 nucleotide long top strand 5′-Tye^665-AGUGCGCUGUAUCGUCAAGGCACU-IBRQSp-3′ (SEQ ID NO:4). Underlined areas denote hairpin-forming regions. DNA and RNA substrates were annealed and purified as described previously (Belon & Frick (2008) BioTechniques 45:433-40, 442).
The cloning, expression, and purification of His-tagged recombinant HCV NS3 protein have been described previously (Lam, et al. (20030 J. Virol. 77:3950-61; Heck, et al. (2008) Antimicrob. Agents Chemother. 52:1901-11; Frick et al. (2010) Methods Mol. Biol. 587:223-233; Belon, et al. & Frick (2009) J. Mol. Biol. 388:851-864).
(§2) All molecular beacon-based helicase assays (MBHAs) were performed according to known methods (Belon & Frick (2008) supra; Belon & Frick (2009) supra). […] In each flat, black 384-well plate, 56 compounds were tested, in triplicate, along with three negative controls (DMSO only), three positive controls (500 nM dT20), and two wells with no enzyme. Fluorescence was read before ATP (F0) addition and 30 minutes after ATP was added to 1 mM (F30) using a Tecan Infinite M200 fluorescence microplate reader with excitation and emission wavelengths set to 643 and 670 nm, respectively. Percent inhibition was calculated with equation 1, and compound interference in the MBHA was calculated with equation 2.
To monitor helicase reaction kinetics and to calculate IC50 values, MBHAs were performed in 60 μL in white ½ area 96-well plates and measured in a Thermo Varioscan Multimode reader (Thermo Scientific) using the 643 nm excitation wavelength and 667 emission wavelengths. Reactions were again performed by first incubating all components except for ATP for two minutes, then initiated by injecting in 1/10 volume of ATP such that the final concentration of all components was as noted above. Conditions were as described above except that 5% v/v DMSO was present in each assay. Initial reaction velocities were calculated by fitting first-order decay equation to data obtained after ATP addition and calculating an initial velocity form the resulting amplitude and rate constant.
[formula] where, v0 is the velocity observed in DMSO-only controls inhibition, h is the Hillslope coefficient, [I] is the concentration of test compound.

[3] = target: T2, HCV helicase (Hepatitis C virus genotype 1b, UniProt Q9WMX2); experiment: MBHA with RNA substrate (HCV helicase-catalyzed RNA unwinding); format: biochemical; details: in words
T2 construct: truncated C-terminally His-tagged NS3 proteins lacking the N-terminal protease, called NS3h; His-tag (C); made in house
Text: as §1, §2
To monitor helicase reaction kinetics and to calculate IC50 values, MBHAs were performed in 60 μL in white ½ area 96-well plates and measured in a Thermo Varioscan Multimode reader (Thermo Scientific) using the 643 nm excitation wavelength and 667 emission wavelengths. […] Initial reaction velocities were calculated by fitting first-order decay equation to data obtained after ATP addition and calculating an initial velocity form the resulting amplitude and rate constant.

[4] = test system: Huh-7.5 cells; experiment: Cell viability assay ([…]-GLO); format: cell-based, human; details: 10 μM
Protocol: To assess compound toxicity toward Huh-7.5 cells, cells were plated and treated as above and cell viability was assessed using the […]-GLO luminescent cell viability kit (PROMEGA) following the manufacturer's instructions. Briefly, at the end of a 72 hour incubation period, the medium was aspirated and the cells were washed with 1×PBS, then an equal volume of growth medium and […]-GLO reagent was added and the lysis was initiated by mixing on an orbital shaker. The plate was incubated at 23° C. for 30 minutes and the luciferase activity was measured for 1 second using the FLUOSTAR Omega microplate reader (BMG Labtech).

[5] = target: T3, NS3h_1b(con1) (Hepatitis C virus genotype 1b, UniProt Q9WMX2); experiment: ATP hydrolysis assay (malachite green); format: biochemical
T3 construct: truncated C-terminally His-tagged NS3 proteins lacking the N-terminal protease, called NS3h; His-tag (C); made in house
Protocol: A modified “malachite green” assay (Lanzetta, et al. (1979) Anal. Biochem. 100:95-97) was used to measure ATP hydrolysis. Fifty μL reactions contained 25 mM MOPS pH 6.5, 5 mM MgCl2, 2 mM ATP, 5 μg/mL BSA, 0.01% (v/v) TWEEN 20, 0.05 mM DTT, and poly(U) RNA (Saint Louis, Mo.) as indicated. Reactions were initiated by adding NS3h_1b(con1). Reactions were incubated for 15 minutes at 37° C. then stopped by mixing 40 μL of the reaction into 200 μL of the malachite green reagent (3 volumes 0.045% (w/v) malachite green, 1 volume 4.2% ammonium molybdate in 4N HCl, 0.05 volume of 20% TWEEN 20). […] Absorbance at 630 nm was proportional to the concentration of phosphate produced; free phosphate produced was measured against a standard curve.

[6] = test system: MBHA DNA substrate; experiment: Modified FID assay, SYBR Green I; format: binding; details: FID; mean ± SD; read-out: DNA Binding (SYBR Green I) EC50
Protocol: A modified FID assay, in which ethidium bromide was replaced with SYBR Green I (Invitrogen), was used to estimate a compounds affinity for the MBHA substrate. Reactions were performed as described above except that the DNA substrate was present at 0.32 μM, ethidium bromide was absent, and SYBER Green was present at (0.68 μM). Data were normalized as described above and fit to concentration-response equation using GraphPad Prism software. Titrations with each compound were performed in triplicate, and EC50 values from three independent titrations are reported ±standard deviations.

[7] = target: T4, E. coli SSB-Cy5-dT15 complex (Escherichia coli, UniProt P0AGE0); experiment: Escherichia coli SSB Cy5-dT15 binding assay (fluorescence polarization); details: disruption of Cy5-dT15-SSB complex; read-out: Cy5-dT15-SSB Binding IC50
T4 construct: purchased Promega
Protocol: The Escherichia coli SSB assay was performed in a total volume of 20.2 μl in 384-well, flat-bottom, low volume, black microplates (Greiner Bio-One). First, 20 μl of a assay solution (5 nM Cy5-[…]-3′ (Cy5-dT15, SEQ ID NO:5), 20 nM E. coli SSB (Promega), 25 mM MOPS, pH 7.5, 1.25 mM MgCl2, 0.0025 mg/ml BSA, 0.005% (v/v) TWEEN 20 and 0.025 mM DTT) was dispensed in each well, then 0.2 μl of dimethylsulfoxide (DMSO) or compound dissolved in DMSO was added by pin transfer, such that the final concentration of DMSO was 1% (v/v) in each assay.
For IC50 determination, assays were performed with 60 μl total volume in black flat bottomed 384-well microplates (Corning). First, 3.0 μl of DMSO or compound dissolved in DMSO was added, such that the final concentration of DMSO was 5% (v/v) in each assay. Then 57 μl of a assay solution (5 nM Cy5-dT15, 20 nM SSB, 25 mM MOPS, pH 7.5, 1.25 mM MgCl2, 0.0025 mg/ml BSA, 0.005% (v/v) TWEEN 20 and 0.025 mM DTT) was dispensed in each well. Polarization was monitored with a TECAN Infinite M1000 PRO multi-mode microplate reader by exciting at 635 nm (5 nm bandwidth) and measuring total fluorescence intensity, parallel and perpendicular polarized light at 667 nm (20 nm bandwidth).

[8] = MBHA, DNA unwinding, mean ± SD of three titrations, read-out: Helicase IC50
[9] = standard HCV helicase MBHA (Table 9), read-out: DNA Unwinding IC50

T3 sequence (Q9WMX2 1192-1657): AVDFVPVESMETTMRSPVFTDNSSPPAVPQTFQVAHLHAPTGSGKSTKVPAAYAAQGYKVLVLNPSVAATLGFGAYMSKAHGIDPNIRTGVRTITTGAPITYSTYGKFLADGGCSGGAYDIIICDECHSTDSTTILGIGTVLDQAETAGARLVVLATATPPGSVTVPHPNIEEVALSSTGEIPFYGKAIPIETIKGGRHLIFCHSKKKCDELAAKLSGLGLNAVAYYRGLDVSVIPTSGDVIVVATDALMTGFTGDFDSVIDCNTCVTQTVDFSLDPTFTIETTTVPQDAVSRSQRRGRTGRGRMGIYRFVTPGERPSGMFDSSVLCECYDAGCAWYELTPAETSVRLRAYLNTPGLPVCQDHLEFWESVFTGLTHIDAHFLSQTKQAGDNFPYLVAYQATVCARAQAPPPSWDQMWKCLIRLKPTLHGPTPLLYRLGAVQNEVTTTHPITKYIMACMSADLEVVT
T1 sequence (Q9WMX2 1192-1657): as above
T4 sequence (P0AGE0 2-178, one chain of several): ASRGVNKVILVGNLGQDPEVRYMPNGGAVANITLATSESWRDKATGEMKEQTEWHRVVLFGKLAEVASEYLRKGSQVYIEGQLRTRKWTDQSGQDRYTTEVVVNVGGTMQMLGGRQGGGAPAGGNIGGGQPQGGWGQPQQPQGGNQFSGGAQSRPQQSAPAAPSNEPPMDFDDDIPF
T2 sequence (Q9WMX2 1192-1657): as the sequence (Q9WMX2 1192-1657) above

| Structure (SMILES) | IC50 ([1]; ethidium bromide FID, read-out: IC50 in FID assays (positive control)) [µM] | IC50 [2, 8] [µM] | effect on HCV helicase catalyzed RNA unwinding [3] | toxicity to cells [4] | IC50 [5] [µM] | EC50 [6] [µM] | EC50 [1] [µM] | IC50 [7] [µM] | IC50 [2, 9] [µM] | effect on HCV helicase catalyzed DNA unwinding ([2]; in words) |
| --- | --- | --- | --- | --- | --- | --- | --- | --- | --- | --- |
| N=C(N)c1ccc(N=NNc2ccc(C(=N)N)cc2)cc1 [Berenil, reference compound] | 1.6 ± 0.1 | – | – | – | – | – | – | – | – | – |
| CO[C@@H]1[C@H](O)C[C@@H](O[C@@H]2C[C@H](Oc3cc4cc5c(c(O)c4c(O)c3C)C(=O)[C@@H](O[C@H]3C[C@@H](O[C@H]4C[C@@H](O[C@H]6C[C@](C)(O)[C@@H](OC(C)=O)[C@H](C)O6)[C@H](O)[C@@H](C)O4)[C@H](O)[C@@H](C)O3)[C@H]([C@H](OC)C(=O)[C@@H](O)[C@@H](C)O)C5)O[C@H](C)[C@@H]2OC(C)=O)O[C@@H]1C [Chromomycin A3, reference compound] | – | 0.15 ± 0.03 | no effect | – | – | – | – | – | – | – |
| CCOc1ccc2c(NNC(=O)c3cnccn3)c3c(nc2c1)CCCC3 [Compound 1, reference compound] | – | > 100 | – | None of the comparison helicase inhibitors were particularly toxic at 10 μM except for 1 | > 100 | > 100 | > 100 | – | – | – |
| Cc1cc(C(O)(c2ccc(Nc3ccccc3)cc2)c2ccc(Nc3ccc(S(=O)(=O)O)cc3)cc2)ccc1N (stereo not shown) [Compound 3, reference compound] | – | 17 ± 7 | – | – | > 100 | 20 ± 2 | 4 ± 2 | – | – | – |
| CN1CCN(Cc2cc(CN3CCN(C)CC3)c(O)c(=O)c(CN3CCN(C)CC3)c2)CC1 [Compound 4, reference compound] | – | 19 ± 8 | – | – | > 100 | 74 ± 21 | > 100 | – | – | – |
| Cc1ccc2nc(-c3ccc(N)cc3)sc2c1S(=O)(=O)O [Compound P1a, 2-(4-aminophenyl)-6-methylbenzo[d]thiazole-7-sulfonic acid] | – | 70 ± 31 | – | – | > 100 | > 100 | > 100 | 13 ± 4 | 70 ± 31 | – |
| Cc1cc2sc(-c3ccc(N)cc3)nc2cc1S(=O)(=O)O [Compound P1b, 2-(4-aminophenyl)-6-methylbenzo[d]thiazole-5-sulfonic acid] | – | 122 ± 5 | – | – | > 100 | > 100 | > 100 | 19 ± 8 | 122 ± 5 | – |
| Cc1cc2sc(-c3ccc4nc(-c5ccc(N)cc5)sc4c3)nc2cc1S(=O)(=O)O [Compound P2b, 2′-(4-aminophenyl)-6-methyl-[2,6′-bibenzo[d]thiazole]-5-sulfonic acid] | – | 10 ± 4.6 | – | – | > 100 | 32 ± 3 | 73 ± 36 | 1 | 7 ± 4 | – |
| CCN(CC)c1ccc(-c2nc3ccc(C)c(S(=O)(=O)O)c3s2)cc1 [Compound T1, 2-(4-(diethylamino)phenyl)-6-methylbenzo[d]thiazole-7-sulfonic acid] | – | 33 ± 24 | – | – | > 100 | – | > 100 | 7 ± 2 | 33 ± 24 | – |
| CCN(CC)c1ccc(-c2nc3ccc(-c4nc5ccc(C)c(S(=O)(=O)O)c5s4)cc3s2)cc1 [Compound T2, 2′-(4-(diethylamino)phenyl)-6-methyl-[2,6′-bibenzo[d]thiazole]-7-sulfonic acid] | – | 26 ± 21 | – | – | – | – | > 100 | 2 | 5 ± 2 | – |
| Cc1c2ccncc2c(C)c2c1[nH]c1ccccc12 [ellipticine, reference compound] | – | 5.6 ± 0.8 | – | – | – | – | – | – | – | – |
| Cc1ccc2c(c1)sc(-c1ccc(N(C)C)cc1)[n+]2C.[Cl-] [thioflavine T, reference compound] | – | – | no effect | – | – | – | – | – | – | no effect |
